Tests used:
[1] = test system: memory power of rats (object recognition); test: Object recognition test; assay type: in vivo; conditions: oral 1.0, 3.0 or 10 mg/kg in Tylose immediately after first passage, second passage 24 hours later
Procedure: The object recognition test is a memory test. It measures the ability of rats (and mice) to differentiate between known and unknown objects.
The test was carried out as described (Blokland et al. NeuroReport 1998, 9, 4205-4208; Ennaceur, A., Delacour, J., Behav. Brain Res. 1988, 31, 47-59; Ennaceur, A., Meliani, K., Psychopharmacology 1992, 109, 321-330; Prickaerts, et al. Eur. J. Pharmacol. 1997, 337, 125-136).
In a first passage, a rat is confronted with two identical objects in an otherwise empty relatively large observation arena. The rat will investigate, i.e. sniff and touch, both objects thoroughly. In a second passage, after an interval of 24 hours, the rat is again placed in the observation arena. One of the known objects is now replaced by a new, unknown object. If a rat recognizes the known object, it will especially investigate the unknown object. After 24 hours, however, a rat has normally forgotten which object it has already investigated in the first passage, and will therefore inspect both objects to the same extent. […] It will investigate the new, unknown object in more detail than the already known one. This memory power is expressed in a discrimination index. […]

[2] = test system: memory capability of mice; conditions: avoidance test; cited from earlier work

Compound	memory power in the second passage compared with the control condition [1]	action on the memory capability [2]
CCCc1nc(C)c2c(=O)[nH]c(-c3cc(S(=O)(=O)N4CCN(C)CC4)ccc3OCC)nn12 [Example 1, 2-[2-ethoxy-5-(4-methyl-piperazine-1-sulphonyl)-phenyl]-5-methyl-7-propyl-3H-imidazo[5,1-f][1,2,4]triazin-4-one]	improved	–
CCCc1nn(C)c2c(=O)[nH]c(-c3cc(S(=O)(=O)N4CCN(C)CC4)ccc3OCC)nc12 [Sildenafil, 5-[2-ethoxy-5-(4-methylpiperazin-1-ylsulphonyl)phenyl]1,6-dihydro-1-methyl-3-propylpyrazolo[4,3-d]pyrimidin-7-one]	–	improving action

From patent publication US20040152700A1, “Novel use of 2-phenyl-substituted imidazotriazinones” (priority 2001, published 2004)
